Results on 44 molecules are retold here after patent US20080004272A1, “Compositions and methods for modulating gated ion channels” (PainCeptor Pharma Corporation, priority 2006, published 2008).

Some results are limits rather than exact numbers.

Assay [1] addresses T1, ASIC1a (Homo sapiens, UniProt P78348).
T1 sequence (P78348 1-528): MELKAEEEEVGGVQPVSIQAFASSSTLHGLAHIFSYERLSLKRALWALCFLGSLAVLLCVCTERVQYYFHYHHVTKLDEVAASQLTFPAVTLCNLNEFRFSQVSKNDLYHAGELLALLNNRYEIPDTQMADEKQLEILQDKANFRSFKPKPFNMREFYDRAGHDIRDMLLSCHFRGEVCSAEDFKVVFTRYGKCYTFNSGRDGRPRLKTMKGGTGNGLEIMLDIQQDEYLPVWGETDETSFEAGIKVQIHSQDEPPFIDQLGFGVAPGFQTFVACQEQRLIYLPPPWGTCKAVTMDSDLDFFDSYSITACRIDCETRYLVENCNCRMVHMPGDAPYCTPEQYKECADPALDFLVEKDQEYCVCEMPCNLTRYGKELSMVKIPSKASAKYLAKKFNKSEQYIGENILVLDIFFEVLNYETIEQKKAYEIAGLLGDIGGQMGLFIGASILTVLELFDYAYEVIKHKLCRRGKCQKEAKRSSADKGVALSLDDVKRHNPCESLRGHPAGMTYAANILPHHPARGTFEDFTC
Nature of the assay: Calcium imaging of MES-induced calcium response (FLIPR). In kind it is cell-based. Details: host or cells: HEK293. The settings on record: ASIC1a expressing HEK293 cells, MES-induced calcium response; read-out: IC50 (FLIPR).

Assay [2] deals with T1, ASIC1a. Kind of assay: Two-electrode voltage clamp in Xenopus laevis oocytes (Xo), acid-induced currents. Format: cell-based. The settings on record: 50 μM, Xenopus oocytes; read-out: % inh. at 50 μM (Xo). The arrangement: expressed in transfected cells; host or cells: Xenopus laevis oocytes (nuclear microinjection of expression vector such as pcDNA3). How it is done:
Two-electrode voltage clamp electrophysiological assays in Xenopus laevis oocytes expressing gated ion channels are performed as follows:
Oocytes are surgically removed from adult Xenopus laevis and treated for 2 h at room temperature with 1 mg/ml type I collagenase (Sigma) in Barth's solution under mild agitation. Selected oocytes at stage IV-V are defolliculated manually before nuclear microinjection of 2.5-5 ng of a suitable expression vector, such as pcDNA3, comprising the nucleotide sequence encoding a gated ion channel subunit protein. In such an experiment, the oocytes express homomultimeric proton-gated ion channels on their surface. In an alternate experiment, one, two, three or more vectors comprising the coding sequences for distinct gated ion channel subunits are co-injected in the oocyte nuclei. In the latter case, oocytes express heteromultimeric proton-gated ion channels. For example, ASIC2a and/or ASIC3 subunits in pcDNA3 vector are co-injected at a 1:1 cDNA ratio. After 2-4 days of expression at 19° C. in Barth's solution containing […] gentamicin and 1.8 mM CaCl2, gated ion channels are activated by applying an acidic solution (pH<7) and currents are recorded in a two electrode voltage-clamp configuration, using an OC-725B amplifier (Warner Instruments). Currents are acquired and digitized at 500 Hz on an Apple Imac G3 computer with an A/D NB-MIO-16XL interface (National Instruments) and recorded traces are post-filtered at 100 Hz in Axograph (Axon Instruments) (Neher, E. and Sakmann, B. (1976) Nature 260:799-802). Once impaled with the microelectrodes, oocytes are continuously superfused at 10-12 ml/min with a modified Ringer's solution containing 97 mM NaCl, 2 mM KCl, 1.8 mM CaCl2, and 10 mM HEPES brought to pH 7.4 with NaOH (Control Ringer). Test Ringer solution is prepared by replacing HEPES with MES and adjusting the pH to the desired acidic value. Compounds of the present invention are prepared in both the Control and Test Ringer solutions and applied to oocytes at room temperature through a computer-controlled switching valve system. Osmolarity of all solutions is adjusted to 235 mOsm with choline chloride. Similarly, recordings can also be acquired in an automated multichannel oocytes system as the OpusExpress™ (Molecular Devices, Sunnyvale, USA).
FIGS. 1A and 2A illustrate the inhibitory effects of Compounds 203 and 206 on acid-induced activation of recombinant homomeric hASIC1a channels.

In general, IC50 refers to the point on the concentration scale where inhibition reaches its midpoint. Take `CCOC(=O)N1CCc2c(-c3ccccc3)cc(C(=O)CCl)c(N)c2C1` [Compound 149]: the IC50 at ASIC1a [1] is above 70 µM. Also, at ASIC1a [2], the inhibition at 50 µM was below 25%.
Regarding `CCOC(=O)CN(C(C)=O)c1ccc(-c2ccccc2)c2c1CN(C(=O)OCC)CC2` [Compound 139], the 50% inhibitory concentration (IC50) at ASIC1a [1] is 50 to 70 µM. Moreover, the inhibition at 50 µM at ASIC1a [2] was below 25%.
Taken in the same sequence, the figures for `CN1CCc2c(-c3ccccc3)cc3c(c2C1)NC(=O)C31OCCO1` [Compound 76] were 20 to 40 µM and below 25%.
Taken in the same sequence, the figures for `CN1CCc2c(-c3ccccc3)ccc(Nc3ncccc3C(=O)O)c2C1` [Compound 150] were above 70 µM and below 25%.
With `CN1CCc2c(-c3ccccc3)cc3c(c2C1)NC(=O)/C3=N\NC(N)=O` [Compound 103], the IC50 at ASIC1a [1] lay within 40 to 60 µM. In addition, at ASIC1a [2], the inhibition at 50 µM is below 25%.
With `COc1ccc(F)cc1-c1cc2c(c3c1CCN(C)C3)NC(=O)/C2=N\O[C@H]1O[C@@H](CO)[C@H](O)[C@@H](O)[C@@H]1O` [Compound 20], the IC50 on ASIC1a [1] was in the range of 20 to 30 µM. Further, the inhibition at 50 µM on ASIC1a [2] was below 25%.
Regarding `CN1CCc2c(-c3ccccc3)cc3c(=O)[nH]c(=O)[nH]c3c2C1` [Compound 98], at ASIC1a [1], the IC50 is above 70 µM. The inhibition at 50 µM on ASIC1a [2] fell in the range of 20 to 40%.
Taken in the same sequence, the figures for `CN1CCc2c(-c3ccccc3)ccc(NCCO)c2C1` [Compound 143] were above 70 µM and below 25%.
Taken in the same sequence, the figures for `CN1CCc2c(-c3ccccc3)cc3c(c2C1)NC(=O)/C3=C/c1ccccc1C(=O)O` [Compound 82] were above 70 µM and below 25%.
The like results for `CC(C)(C)OC(=O)N1CCc2c(-c3ccccc3)ccc(C(=O)O)c2C1` [Compound 182] were, in that order, above 70 µM and below 25%.
Turning to `CN1CCc2c(-c3ccccc3)ccc(C#N)c2C1` [Compound 178], on ASIC1a [1], the IC50 was above 70 µM. In addition, the inhibition at 50 µM on ASIC1a [2] is below 25%.
Taken in the same sequence, the figures for `[H]/N=C(\N)N/N=C1/C(=O)Nc2c1cc(-c1ccccc1)c1c2CN(C)CC1` [Compound 105] were 20 to 40 µM and 20 to 30%.
`COC(=O)CCC(=O)Nc1ccc(-c2ccccc2)c2c1CN(C)CC2` [Compound 132]: the IC50 on ASIC1a [1] is above 70 µM. Moreover, the inhibition at 50 µM on ASIC1a [2] was below 25%.
The like results for `CN1CCc2c(-c3ccccc3)cc3c(c2C1)NC(=O)/C3=C/c1ccccn1` [Compound 90] were, in that order, above 70 µM and below 25%.
Taken in the same sequence, the figures for `CN1CCc2c(-c3ccccc3)cc3c(c2C1)NC(=O)/C3=C/C(=O)O` [Compound 91] were above 70 µM and below 25%.
The like results for `COC(=O)c1cc(-c2ccccc2)c2c(c1C(=O)OC)CN(C(=O)OC(C)(C)C)CC2` [Compound 179] were, in that order, above 70 µM and below 25%.
In the case of `CN1CCc2c(-c3ccccc3)ccc(Br)c2C1` [Compound 172], at ASIC1a [1], the IC50 was 50 to 70 µM. For the same molecule, on ASIC1a [2], the inhibition at 50 µM is below 25%.
With `CN1CCc2c(-c3ccccc3)cc3cc[nH]c3c2C1` [Compound 78], the IC50 at ASIC1a [1] is above 70 µM. Also, the inhibition at 50 µM on ASIC1a [2] was below 25%.
The like results for `CC(=O)Nc1c(N)cc(-c2ccccc2)c2c1CN(C)CC2` [Compound 156] were, in that order, above 70 µM and below 25%.
Taken in the same sequence, the figures for `CN1CCc2c(-c3ccccc3)ccc(NC(=O)CCO)c2C1` [Compound 131] were above 70 µM and below 25%.
The like results for `CN1CCc2c(-c3ccccc3)cc([N+](=O)[O-])c(N)c2C1` [Compound 155] were, in that order, 40 to 70 µM and below 25%.
`CN1CCc2c(-c3ccccc3)ccc(NC(=O)CCC(=O)O)c2C1` [Compound 134]: the 50% inhibitory concentration (IC50) at ASIC1a [1] was above 70 µM. On ASIC1a [2], the inhibition at 50 µM is below 25%.
The like results for `CN1CCc2c(-c3ccccc3)cc3c(c2C1)NC(=O)/C3=C/c1ccc(C(=O)O)cc1` [Compound 83] were, in that order, above 70 µM and below 25%.
In the case of `CN1CCc2c(-c3ccccc3)cc3c(O)cc(=O)[nH]c3c2C1` [Compound 94], the half-inhibitory concentration (IC50) at ASIC1a [1] is above 70 µM. Moreover, the inhibition at 50 µM at ASIC1a [2] was below 25%.
With `CCOC(=O)N1CCc2c(-c3ccccc3)ccc(N)c2C1` [Compound 159], the IC50 at ASIC1a [1] was above 70 µM. Besides, the inhibition at 50 µM on ASIC1a [2] lay within 20 to 40%.
Taken in the same sequence, the figures for `CCOC(=O)C(=O)Nc1ccc(-c2ccccc2)c2c1CN(C(=O)OCC)CC2` [Compound 125] were above 70 µM and below 25%.
The like results for `COC(=O)c1cc(-c2ccccc2)c2c(c1N)CN(C)CC2` [Compound 142] were, in that order, above 70 µM and below 25%.
The like results for `CCOC(=O)/C=C1/C(=O)Nc2c1cc(-c1ccccc1)c1c2CN(C)CC1` [Compound 92] were, in that order, above 70 µM and below 25%.
For the molecule `CCOC(=O)CNc1ccc(-c2ccccc2)c2c1CN(C)CC2` [Compound 126], at ASIC1a [1], the IC50 lay in the range of 20 to 40 µM. The inhibition at 50 µM at ASIC1a [2] is below 25%.
The like results for `CN1CCc2c(-c3ccccc3)cc(C#N)c(NC(=O)OC(C)(C)C)c2C1` [Compound 130] were, in that order, above 70 µM and below 25%.
Taken in the same sequence, the figures for `Cc1nc2c3c(c(-c4ccccc4)cc2c(=O)o1)CCN(C)C3` [Compound 97] were above 70 µM and below 25%.
The like results for `CN1CCc2c(-c3ccccc3)cc3c(c2C1)NC(=O)/C3=C/c1ccccc1O` [Compound 86] were, in that order, above 70 µM and below 25%.
In the case of `Nc1ccc(-c2ccccc2)c2ccncc12` [Compound 136], on ASIC1a [1], the IC50 was above 70 µM. Further, the inhibition at 50 µM on ASIC1a [2] was below 25%.
Taken in the same sequence, the figures for `COC(=O)c1cc(-c2ccccc2)c2c(c1C(=O)OC)CN(C)CC2` [Compound 180] were above 70 µM and below 25%.
The like results for `COc1ccc(C=O)cc1-c1cc2c(c3c1CCN(C)C3)NC(=O)/C2=N/O` [Compound 30] were, in that order, above 70 µM and 40 to 60%.
The like results for `CN1CCc2c(-c3ccccc3)ccc(NC(=O)CCCO)c2C1` [Compound 133] were, in that order, above 70 µM and below 25%.
Regarding `CCOC(=O)N1CCc2c(Br)ccc(NCC(=O)OC)c2C1` [Compound 158], the concentration for half-maximal inhibition (IC50) at ASIC1a [1] is above 70 µM. Moreover, the inhibition at 50 µM at ASIC1a [2] was below 25%.
Taken in the same sequence, the figures for `CN1CCc2c(-c3ccccc3)cc3c(c2C1)C(=O)N(N)C3=O` [Compound 80] were above 70 µM and below 25%.
Taken in the same sequence, the figures for `COC(=O)c1ccc(-c2ccccc2)c2c1CN(C(=O)OC(C)(C)C)CC2` [Compound 177] were above 70 µM and below 25%.
Taken in the same sequence, the figures for `COc1ccc(NC(=O)NCc2ccc(-c3ccccc3)c3c2CN(C)CC3)cc1` [Compound 117] were above 70 µM and below 25%.
Consider `CCOC(=O)N1CCc2c(-c3ccccc3)ccc(NCC(=O)O)c2C1` [Compound 138], for which the IC50 at ASIC1a [1] is above 70 µM. Moreover, the inhibition at 50 µM on ASIC1a [2] was below 25%.
The like results for `CN1CCc2c(-c3ccccc3)cc3c(c2C1)NC(=O)C3` [Compound 81] were, in that order, above 70 µM and 20 to 40%.
The like results for `CN1CCc2c(-c3ccccc3)cc3c(c2C1)NC(=O)/C3=C1\CCCN1C` [Compound 93] were, in that order, above 70 µM and below 25%.
`O=[N+]([O-])c1ccc(-c2ccccc2)c2ccncc12` [Compound 135]: on ASIC1a [1], the IC50 is above 70 µM. In addition, the inhibition at 50 µM on ASIC1a [2] was below 25%.
